According to patent US20040229268A1, “Method and kit for identifying antibiotic-resistant microorganisms” (priority 2003, published 2004):

System: rRNA/rDNA (pan-bacterial probe); mecA target sequence
Test: HPA after base treatment of specimen or synthetic target (Example 3)
Type: binding, S. aureus
Experimental: The effect of base treatment on a S. aureus specimen (#102) was evaluated using the pan-bacterial probe reagent. A pelleted sample of the specimen was suspended in 120 μl of lysis buffer and lysed by treatment for 20 minutes in a heat block set at 110° C. A 50 μl aliquot of the lysed specimen was treated with 50 μl of a 0.4 N LiOH solution at 55° C. for 10 minutes, and then neutralized with the addition of 50 μl of 0.4 N HCl and buffered with 50 μl of a 1× hybridization buffer (0.6 M LiCl, 1% lithium lauryl sulfate, 10 mM EDTA, 10 mM EGTA, 50 mM lithium succinate, pH 5.5). The treated sample was hybridized with the AE-labeled pan-bacterial probe by incubating at 55° C. for 1 hour. An HPA assay to detect specific probe hybrids was carried out using standard procedures that will be familiar to those having an ordinary level of skill in the art. A control sample consisted of 50 μl of the lysed specimen and volumes of hydrolysis, neutralization and buffered solutions equivalent to those of the treated sample.
For example, the effect of base treatment with 0.8 N LiOH for 10 minutes at 55° C. was assessed using AE-probe 1. For these treatments, an equal volume of 0.8 N LiOH was added to the sample, and the reaction mixtures were neutralized with the addition of an equivalent volume of 0.8 N HCl prior to buffering and assaying by HPA. 300 μl aliquots of each reaction mixture were read in the luminometer. These procedures employed a single-stranded DNA oligonucleotide having the same sequence that was present in the target bacteria, and that was fully complementary to the hybridization probe undergoing testing, as synthetic target.

Sequence: GGTATGTGGAAGTTAGATTGGGATCATAGCG (AE label, linker between 13 and 14, chemistry not fully specified; listed as Staphylococcus aureus) [Probe 1]
- AE-probe 1 Signal (RLU) (#148, Control (no base treatment)): 34677 RLU
- AE-probe 1 Signal (RLU) (#148, base treated (0.8 N LiOH, 10 minutes, 55° C.)): 42627 RLU
- AE-probe 1 Signal (RLU) (Synthetic target + #148, Control): 53367 RLU
- AE-probe 1 Signal (RLU) (Synthetic target + #148, base treated): 58565 RLU
- AE-probe 1 Signal (RLU) (Synthetic target, Control (no base treatment)): 22195 RLU
- AE-probe 1 Signal (RLU) (Synthetic target, base treated (0.8 N LiOH, 10 minutes, 55° C.)): 21283 RLU
